Measured values taken from PMC7170388, “Strong inhibitory activities and action modes of lipopeptides on lipase” (Journal of Enzyme Inhibition and Medicinal Chemistry, 2020).
Values after ≈ are worked out from the molar mass of the structure shown. Like-named read-outs stand apart in the source and are kept apart here. No end group written: not given here.

What was measured:
[1] = biological target: T1, Mucor miehei lipase (Mucor miehei, UniProt P19515 95-363)
T1 sequence (looked up): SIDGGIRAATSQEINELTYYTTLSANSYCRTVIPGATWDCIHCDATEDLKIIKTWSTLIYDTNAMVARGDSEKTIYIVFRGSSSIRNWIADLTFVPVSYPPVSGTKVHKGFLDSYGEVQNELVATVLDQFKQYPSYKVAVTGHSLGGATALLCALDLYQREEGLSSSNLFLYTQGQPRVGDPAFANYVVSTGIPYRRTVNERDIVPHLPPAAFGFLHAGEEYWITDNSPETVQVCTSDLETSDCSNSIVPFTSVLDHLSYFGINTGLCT

[2] = system: lipase; conditions: cited from earlier work; for IC50 on lipase: previously reported
Source text: The inhibition mechanisms of crude lipopeptide, fengycin, and surfactin on lipase catalysis were studied.

[3] = biological target: T2, Mucor miehei lipase (Rhizomucor miehei, UniProt P19515); assay: Inhibition mechanism and type of lipopeptides on lipase (activity vs enzyme concentration; Lineweaver-Burk); type: biochemical; parameters: purchased Sigma-Aldrich (St. Louis, MO); conditions: for Inhibition effect: Type: Lineweaver-Burk plot, Tris-HCl buffer, 100 µL lipase; for IC50, Calculated: calculated value of Table 2; for Inhibition effect: Mechanisms: remaining enzyme activity vs enzyme concentration, lines intersecting at the origin, fixed substrate; for Inhibition constant KI: secondary plot of 1/Vm versus inhibitor concentration
T2 sequence (P19515 95-363): T1 sequence (looked up)
Experimental: The inhibition mechanisms were studied by fixing the concentration of substrate and changing the lipopeptides and enzymes to monitor enzymatic reaction. The inhibition types were determined based on the Lineweaver-Burk plot[22]; this reaction system contained different concentrations of substrate and lipopeptide and 100 µL of lipase in Tris-HCl buffer. Then, the inhibition constant was calculated from a secondary plot of 1/Vm versus the inhibitor concentration.

[4] = biological target: T2, Mucor miehei lipase; assay: Lipase inhibition (4-NPP hydrolysis, 405 nm); conditions: relative to iturin
Experimental: Lyophilised powder of Mucor miehei lipase (EC3.1.1.3), 4-Nitrophenyl palmitate (4-NPP), iturin, and surfactin were purchased from Sigma-Aldrich (St. Louis, MO). Acetonitrile, hydrochloric acid (HCl) and Tris were purchased from Sinopharm (Shanghai, China).
The lipase inhibition was determined according to the method described by Liu et al.[21] 10 µg/mL lipase in water and 7.5 mmol/L 4-NPP in acetonitrile solutions were prepared. […] The 1 mL reaction mixture contained 0.75 mM 4-NPP, 0.4 µg/mL lipase, and different concentrations of inhibitor in Tris-HCl buffer (pH 7.8). The reaction was carried out at 37 °C and the detection wavelength was set at 405 nm.

[5] = biological target: T1, Mucor miehei lipase; assay: other fluorescence titration; quenching of the intrinsic fluorescence of lipase (emission peak 338 nm) by crude lipopeptide at 0-0.457 mg/mL; Stern-Volmer and double-logarithmic plots
[6] = biological target: T1, Mucor miehei lipase; remark: listed apart in the source
[7] = reported to cause certain side effects; cited from earlier work
Source text: Dietary and lifestyle modifications such as calorie restriction and physical exercises are the common strategies adopted to control body weight; further, these methods have limited anti-obesity effects. It has previously been reported that lipase inhibition is a potential strategy for counteracting obesity. Digestive lipase hydrolyses non-absorbable dietary triglycerides to smaller absorbable molecules of monoglycerides and free fatty acids, which are absorbed by the intestine. Inhibiting digestive lipase can reduce intestinal fat absorption. Human pancreatic lipase is the main enzyme ...

[8] = from 72 mN/m; cited from earlier work
Source text: In fact, it has been reported that bacterial cyclic lipopeptides are the most popular amphiphilic molecules that are excellent surface active compounds[12]. The genus Bacillus is described as an efficient source of lipopeptide biosurfactants. The Bacillus lipopeptides are divided into three different families, including iturins, surfactins, and fengycins, ...

[9] = biological target: T1, Mucor miehei lipase; assay: cell-based or functional assay

iturin standard (peptide)
IC50 of inhibition of lipase activity (4-NPP hydrolysis) [1]: 56 µg/mL

O=C(O)c1ccco1 [furoic acid]
inhibition mechanism on lipase [2]: reversible
IC50 on lipase [2]: 242 µg/mL (≈ 2.16 mM)

fengycin
Inhibition effect: Type [3]: Competitive inhibition
Inhibition effect: Type ([3]; listed as fengycin): competitive
IC50, Calculated [3]: 2 µg/mL
Inhibition effect: Mechanisms [3]: Reversible
Inhibition constant KI [3]: 1 µg/mL
stronger lipase inhibition activity than iturin [4]: about 10 -fold

crude lipopeptide from Bacillus velezensis FJAT-52631
Ksv (Stern-Volmer quenching constant) [5]: 0.525 L/g
stoichiometry N [5]: 0.78
IC50 (calculated) of inhibition of lipase activity [6]: 8 µg/mL
IC50 (measured) of inhibition of lipase activity (4-NPP hydrolysis) [6]: 11 µg/mL

purified fengycin from Bacillus velezensis FJAT-52631 (peptide)
IC50 (calculated) of inhibition of lipase activity [6]: 2 µg/mL
IC50 (measured) of inhibition of lipase activity (4-NPP hydrolysis) [6]: 5 µg/mL

CCCCCCCCCCC[C@@H](C[C@@H]1OC(=O)[C@H]1CCCCCC)OC(=O)[C@H](CC(C)C)NC=O [orlistat]
inhibition mechanism on lipase [2]: irreversible
side effects [7]: oily stools, oily spotting, and flatulence

surfactin
surface tension of water lowered to [8]: 27 mN/m
Inhibition effect: Type [3]: Competitive inhibition
Inhibition effect: Type ([3]; listed as surfactin): competitive
IC50, Calculated [3]: 1 µg/mL
Inhibition effect: Mechanisms [3]: Reversible
Inhibition constant KI [3]: 1 µg/mL
stronger lipase inhibition activity than iturin [4]: about 10 -fold

O=C(O)C(=O)O [oxalic acid]
inhibition mechanism on lipase [2]: reversible
IC50 on lipase [2]: 1425 µg/mL (≈ 15.8 mM)

B1: surfactin standard (peptide)
chain: ELLVDLL
modifications: not fully specified (residues 3, 6, N-terminus, bridges); also: cyclic peptide ring with beta-hydroxy fatty acid chain, attachment not given here
IC50 (calculated) of inhibition of lipase activity [9]: 1 µg/mL
IC50 (measured) of inhibition of lipase activity (4-NPP hydrolysis) [9]: 5 µg/mL
